Laboratory results from patent publication US10428017B2, “Modulators of the cystic fibrosis transmembrane conductance regulator protein and methods of use” (AbbVie S.à.r.l., priority 2017, dated 2019).
Like-named read-outs stand apart in the source and are kept apart here.

Target: T1, F508delCFTR (Homo sapiens, UniProt P13569, DEL508-508)
T1 construct: expressed in transfected cells; host or cells: CFBE4lo-F508delCFTR-HRP cells (human lung derived epithelial cell line, doxycycline-inducible)
Assay: Cell Surface Expression-Horse Radish Peroxidase (CSE-HRP) Assay
Type: cell-based
Conditions: for EC50: CFBE4lo-F508delCFTR-HRP cells, 18-24 hours at 33° C.; for Emax / Maximum % activity (with co-corrector): maximum at any tested concentration (up to 20 μM), normalized to on-plate positive control (2 μM co-corrector); for Maximum % activity (with co-corrector): with co-corrector 2 μM
Description: Cell Surface Expression-Horse Radish Peroxidase (CSE-HRP) Assay
A cellular assay for measuring the F508delCFTR cell surface expression after correction with test compounds either without or with a co-corrector (2 μM of 3-[(2R,4R)-4-({[1-(2,2-difluoro-1,3-benzodioxol-5-yl)cyclopropyl]carbonyl}amino)-7-methoxy-3,4-dihydro-2H-chromen-2-yl]benzoic acid), was developed in human lung derived epithelial cell line (CFBE4lo−) (Veit G et al, (2012) Mol Biol Cell. 23(21): 4188-4202). The development was achieved by expressing the F508delCFTR mutation along with a horseradish peroxidase (HRP) in the fourth exofacial loop, and then measuring the HRP activity using luminescence readout from these cells, CFBE4lo-F508delCFTR-HRP, that were incubated overnight with the test corrector compounds, either without or with the co-corrector. For this primary assay, the CFBE4lo-F508delCFTR-HRP cells were plated in 384-well plates (Greiner Bio-one; Cat 781080) at 4,000 cells/well along with 0.5 μg/mL doxycycline to induce the F508delCFTR-HRP expression and further incubated at 37° C., 5% CO2 for 72 hours. The test compounds were then added either without or with a co-corrector at the required concentrations and further incubated for 18-24 hours at 33° C. The highest concentration tested was 20 μM with an 8-point concentration response curve using a 3-fold dilution in both the test compound without or with the co-corrector. Three replicate plates were run to determine one EC50. All plates contained negative controls (dimethyl sulfoxide, DMSO) and positive control (2 μM of 3-[(2R,4R)-4-({[1-(2,2-difluoro-1,3-benzodioxol-5-yl)cyclopropyl]carbonyl}amino)-7-methoxy-3,4-dihydro-2H-chromen-2-yl]benzoic acid) as well as on-plate concentration response of the positive control. Post incubation, the plates were washed 5× times with Dulbecco's phosphate buffered saline (DPBS), followed by the addition of the HRP substrate, luminol (50 μL), and measuring the HRP activity using luminescence readout on EnVision® Multilabel Plate Reader (Perkin Elmer; product number 2104-0010). The raw counts from the experiment were analyzed using Accelrys® Assay Explorer v3.3.
Z′ greater than 0.5 was used as passing quality control criteria for the plates.
The Z′ is defined as: 1−[3*SDPositive Control+3*SDNegative Control/Absolute(Meanpostivie Control−MeanNegative Control)] wherein “SD” is standard deviation.
The % activity measured at each of the 8 test concentrations of the test compound added either without or with a co-corrector (2 μM of 3-[(2R,4R)-4-({[1-(2,2-difluoro-1,3-benzodioxol-5-yl)cyclopropyl]carbonyl}amino)-7-methoxy-3,4-dihydro-2H-chromen-2-yl]benzoic acid) was normalized to the on-plate positive control using the following formulae: % activity(Test compound without co-corrector)=[(test compound without co-corrector response−DMSO response)/(positive control response−DMSO response)]*100 % activity(Test compound with co-corrector)=[(test compound with co-corrector response−DMSO response)/(positive control response−DMSO response)]*100
The maximum % activity achieved for the test compound either without or with a co-corrector at any tested concentration is presented in Table 1 along with the respective EC50's calculated using the following general sigmoidal curve with variable Hill slope equation (described as Model 42 in the Accelrys® Assay Explorer v3.3 software): y=(a−d)/(1+(x/c)^b)+d
General sigmoidal curve with concentration, response, top, bottom, EC50 and Hill slope. This model describes a sigmoidal curve with an adjustable baseline, a. The equation can be used to fit curves where response is either increasing or decreasing with respect to the independent variable, “x”.
“x” is a concentration of drug under test.
“a” is the maximum response, and “d” is the minimum response
“c” is the inflection point (EC50) for the curve. That is, “y” is halfway between the lower and upper asymptotes when x=c.
“b” is the slope-factor or Hill coefficient. […]

[1] = test compound without co-corrector, HRP luminescence readout, read-out: EC50 (without co-corrector)
[2] = test compound without co-corrector
[3] = with co-corrector 2 μM 3-[(2R,4R)-4-({[1-(2,2-difluoro-1,3-benzodioxol-5-yl)cyclopropyl]carbonyl}amino)-7-methoxy-3,4-dihydro-2H-chromen-2-yl]benzoic acid, read-out: EC50 (with co-corrector)

T1 sequence (P13569 with tags, fused parts or gaps DEL508-508): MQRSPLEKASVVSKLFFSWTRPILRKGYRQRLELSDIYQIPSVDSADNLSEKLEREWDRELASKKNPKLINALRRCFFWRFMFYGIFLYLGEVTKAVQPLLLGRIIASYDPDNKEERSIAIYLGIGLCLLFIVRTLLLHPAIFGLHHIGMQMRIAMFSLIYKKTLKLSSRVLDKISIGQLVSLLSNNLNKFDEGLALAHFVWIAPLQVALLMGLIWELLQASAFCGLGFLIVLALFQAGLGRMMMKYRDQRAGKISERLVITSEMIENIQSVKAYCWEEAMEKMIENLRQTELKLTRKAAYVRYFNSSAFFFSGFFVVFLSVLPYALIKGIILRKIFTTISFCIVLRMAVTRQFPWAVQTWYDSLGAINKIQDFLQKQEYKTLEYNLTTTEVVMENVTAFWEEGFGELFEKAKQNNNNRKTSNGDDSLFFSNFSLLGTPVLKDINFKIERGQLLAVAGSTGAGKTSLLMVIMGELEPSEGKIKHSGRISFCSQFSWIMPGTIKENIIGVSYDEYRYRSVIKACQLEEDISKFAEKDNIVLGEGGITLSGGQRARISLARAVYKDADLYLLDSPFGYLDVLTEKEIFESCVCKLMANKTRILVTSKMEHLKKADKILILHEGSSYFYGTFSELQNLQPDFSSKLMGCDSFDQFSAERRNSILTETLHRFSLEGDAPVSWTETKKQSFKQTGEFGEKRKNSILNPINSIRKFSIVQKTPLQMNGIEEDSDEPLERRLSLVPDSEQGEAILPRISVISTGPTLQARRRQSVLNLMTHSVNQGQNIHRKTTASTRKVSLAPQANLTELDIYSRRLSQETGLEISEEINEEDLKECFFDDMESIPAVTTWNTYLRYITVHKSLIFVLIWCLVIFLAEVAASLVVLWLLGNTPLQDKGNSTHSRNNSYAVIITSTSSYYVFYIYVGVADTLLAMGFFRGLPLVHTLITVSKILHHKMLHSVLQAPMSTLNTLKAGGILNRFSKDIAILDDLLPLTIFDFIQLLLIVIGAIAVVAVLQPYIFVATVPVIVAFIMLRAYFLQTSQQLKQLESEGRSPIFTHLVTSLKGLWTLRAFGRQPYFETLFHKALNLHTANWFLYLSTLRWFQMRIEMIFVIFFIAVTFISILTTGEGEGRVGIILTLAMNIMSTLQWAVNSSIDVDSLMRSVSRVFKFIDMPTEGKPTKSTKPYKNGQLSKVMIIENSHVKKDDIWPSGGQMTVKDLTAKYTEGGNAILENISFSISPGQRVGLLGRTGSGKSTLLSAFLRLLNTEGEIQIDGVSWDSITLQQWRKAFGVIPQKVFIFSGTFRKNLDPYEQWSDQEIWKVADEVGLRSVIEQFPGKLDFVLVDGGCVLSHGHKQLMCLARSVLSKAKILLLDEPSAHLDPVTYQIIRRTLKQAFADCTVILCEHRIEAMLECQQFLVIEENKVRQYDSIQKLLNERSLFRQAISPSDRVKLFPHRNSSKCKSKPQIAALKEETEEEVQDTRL

Row | Compound | EC50 [1] [µM] | Emax [2] [%] | EC50 [3] [µM] | Maximum % activity (with co-corrector)
1 | Cc1ccccc1S(=O)(=O)NC(=O)C1CCOc2ccccc21 (stereo not shown) [Example 30, N-(2-methylbenzene-1-sulfonyl)-3,4-dihydro-2H-1-benzopyran-4-carboxamide] | ≥ 10 | < 50 | 3 to 10 | + (<150)
2 | O=C(NS(=O)(=O)c1cccc2ccccc12)C1(c2ccccc2)C[C@@H](CN2CCCC2)Oc2ccccc21 (stereo partly drawn) [Example 31, (2S)—N-(naphthalene-1-sulfonyl)-4-phenyl-2-[(pyrrolidin-1-yl)methyl]-3,4-dihydro-2H-1-benzopyran-4-carboxamide] | ≥ 10 | < 50 | 3 to 10 | ++ (≥150 and <350)
3 | C[C@@]1(C(=O)NS(=O)(=O)c2cccc3ccccc23)COc2cc3c(cc21)OC(F)(F)O3 [Example 32, (7S)-2,2-difluoro-7-methyl-N-(naphthalene-1-sulfonyl)-6,7-dihydro-2H-furo[2,3-f][1,3]benzodioxole-7-carboxamide] | 3 to 10 | < 50 | 3 to 10 | ++ (≥150 and <350)
4 | C[C@]1(C(=O)NS(=O)(=O)c2cccc3ccccc23)COc2cc3c(cc21)OC(F)(F)O3 [Example 33, (7R)-2,2-difluoro-7-methyl-N-(naphthalene-1-sulfonyl)-6,7-dihydro-2H-furo[2,3-f][1,3]benzodioxole-7-carboxamide] | ≥ 10 | < 50 | ≥ 10 | ++ (≥150 and <350)
5 | O=C(NS(=O)(=O)c1cccc2ccccc12)C1COc2ccccc21 (stereo not shown) [Example 34, N-(naphthalene-1-sulfonyl)-2,3-dihydro-1-benzofuran-3-carboxamide] | ≥ 10 | < 50 | ≥ 10 | + (<150)
6 | COc1ccc(Br)c2c1[C@@H](C(=O)NS(=O)(=O)c1cccc3ccccc13)CCO2 [Example 35, (4S)-8-bromo-5-methoxy-N-(naphthalene-1-sulfonyl)-3,4-dihydro-2H-1-benzopyran-4-carboxamide] | 3 to 10 | 50 to 150 | 3 to 10 | +++ (≥350)
7 | COc1ccc(Br)c2c1[C@H](C(=O)NS(=O)(=O)c1cccc3ccccc13)CCO2 [Example 36, (4R)-8-bromo-5-methoxy-N-(naphthalene-1-sulfonyl)-3,4-dihydro-2H-1-benzopyran-4-carboxamide] | < 3 | ≥ 150 | < 3 | +++ (≥350)
8 | COc1ccc(Br)c2c1OCC2C(=O)NS(=O)(=O)c1cccc2ccccc12 (stereo not shown) [Example 37, 4-bromo-7-methoxy-N-(naphthalene-1-sulfonyl)-2,3-dihydro-1-benzofuran-3-carboxamide] | 3 to 10 | ≥ 150 | < 3 | +++ (≥350)
9 | COc1cccc2c1C(C(=O)NS(=O)(=O)c1cccc3ccccc13)CC1(CCCCC1)O2 (stereo not shown) [Example 38, 5-methoxy-N-(naphthalene-1-sulfonyl)-3,4-dihydrospiro[1-benzopyran-2,1′-cyclohexane]-4-carboxamide] | < 3 | ≥ 150 | < 3 | +++ (≥350)
10 | COc1ccc(Br)c2c1C(C(=O)NS(=O)(=O)c1cccc3ccccc13)CO2 (stereo not shown) [Example 39, 7-bromo-4-methoxy-N-(naphthalene-1-sulfonyl)-2,3-dihydro-1-benzofuran-3-carboxamide] | < 3 | ≥ 150 | < 3 | +++ (≥350)
11 | COc1ccc(Br)c2c1C(C(=O)NS(=O)(=O)c1cccc3ccccc13)CC1(CCCCC1)O2 (stereo not shown) [Example 41, 8-bromo-5-methoxy-N-(naphthalene-1-sulfonyl)-3,4-dihydrospiro[1-benzopyran-2,1′-cyclohexane]-4-carboxamide] | < 3 | ≥ 150 | < 3 | +++ (≥350)
12 | COc1ccc(Br)c2c1C(C(=O)NS(=O)(=O)c1cccc3cccnc13)CCO2 (stereo not shown) [Example 42, 8-bromo-5-methoxy-N-(quinoline-8-sulfonyl)-3,4-dihydro-2H-1-benzopyran-4-carboxamide] | 3 to 10 | 50 to 150 | < 3 | +++ (≥350)
13 | O=C(NS(=O)(=O)c1cccc2ccccc12)C1COc2c(Cl)cccc21 (stereo not shown) [Example 43, 7-chloro-N-(naphthalene-1-sulfonyl)-2,3-dihydro-1-benzofuran-3-carboxamide] | 3 to 10 | < 50 | 3 to 10 | ++ (≥150 and <350)
14 | CCC1(C(=O)NS(=O)(=O)c2cccc3ccccc23)COc2c(Cl)cccc21 (stereo not shown) [Example 44, 7-chloro-3-ethyl-N-(naphthalene-1-sulfonyl)-2,3-dihydro-1-benzofuran-3-carboxamide] | 3 to 10 | 50 to 150 | 3 to 10 | +++ (≥350)
15 | O=C(NS(=O)(=O)c1cccc2ccccc12)C1COc2c1cccc2C(F)(F)F (stereo not shown) [Example 45, N-(naphthalene-1-sulfonyl)-7-(trifluoromethyl)-2,3-dihydro-1-benzofuran-3-carboxamide] | 3 to 10 | 50 to 150 | 3 to 10 | ++ (≥150 and <350)
16 | COc1ccc(Br)c2c1C(C(=O)NS(=O)(=O)c1cccc3ncccc13)CC(C)(C)O2 (stereo not shown) [Example 46, 8-bromo-5-methoxy-2,2-dimethyl-N-(quinoline-5-sulfonyl)-3,4-dihydro-2H-1-benzopyran-4-carboxamide] | < 3 | ≥ 150 | < 3 | +++ (≥350)
17 | COc1cccc2c1C(C(=O)NS(=O)(=O)c1cccc3cccnc13)CC(C)(C)O2 (stereo not shown) [Example 47, 5-methoxy-2,2-dimethyl-N-(quinoline-8-sulfonyl)-3,4-dihydro-2H-1-benzopyran-4-carboxamide] | 3 to 10 | < 50 | 3 to 10 | ++ (≥150 and <350)
18 | COc1cccc2c1C(C(=O)NS(=O)(=O)c1cccc3ncccc13)CC(C)(C)O2 (stereo not shown) [Example 48, 5-methoxy-2,2-dimethyl-N-(quinoline-5-sulfonyl)-3,4-dihydro-2H-1-benzopyran-4-carboxamide] | 3 to 10 | ≥ 150 | 3 to 10 | +++ (≥350)
19 | COc1cccc2c1C(C(=O)NS(=O)(=O)c1cccc3ccccc13)CC(C)(C)O2 (stereo not shown) [Example 49, 5-methoxy-2,2-dimethyl-N-(naphthalene-1-sulfonyl)-3,4-dihydro-2H-1-benzopyran-4-carboxamide] | 3 to 10 | ≥ 150 | < 3 | +++ (≥350)
